Results taken from patent US7981893B2, “Heteroaryl compounds, compositions thereof, and methods of treatment therewith” (Signal Pharmaceuticals, LLC, priority 2006, dated 2011).

Tests used:
[1] = target: T1, PKCθ (Homo sapiens, UniProt Q04759); assay: PKCθ IMAP Assay; assay type: biochemical; conditions: IMAP fluorescence polarization screening assay, 35 μM ATP
T1 construct: purchased Invitrogen
Description: The following is an example of an assay that can be used to determine the PKCθ inhibitory activity of a test compound. Reagents are prepared as follows:
Assay Buffer: 50 mM HEPES (pH 7.6), 10 mM MgCl, 0.1 mM EDTA, 5 mM MBP, 0.01% Triton, 1 mM DTT, 0.05 mg/ml phosphatidyl serine, 0.05 mg/ml diacylglycerol.
The final concentration of PKCθ (Invitrogen) is 0.5 nM. The final concentration of substrate (FAM-AKRRRLSSLRA) (Molecular Devices) is 100 nM. The final concentration of ATP in the reaction is 35 μM. The final concentration of DMSO in the reaction is 2.5%.
Enzyme is kept in 5 μl aliquots and stored at −80° C. prior to use. Test compound is allowed to pre-incubate with enzyme for 45 minutes before the reactions is initiated.
The reaction mixture consists of: 5 μl of test compound in 10% DMSO, 5 μl of 400 nM substrate (FAM-AKRRRLSSLRA), 5 μl of […] PKCθ, and 5 μl of 140 μM ATP (ATP is added to the reaction mixture last to initiate the reaction) per well.
The reaction is allowed to proceed for 60 minutes and is terminated by adding 30 μl per well of 90% Progressive A buffer/10% Progressive B buffer and a 1:400 dilution of binding beeds (Molecular Devices).
The reaction is given a binding incubation time of at least 30 minutes prior to reading the fluorescence polarization signal on an Analyst reader (the following detector settings are used: fluorescein excitation-485 nm, fluorescein emission-530 nm, fluorescein dichroic-505 nm).

T1 sequence (Q04759 whole entry): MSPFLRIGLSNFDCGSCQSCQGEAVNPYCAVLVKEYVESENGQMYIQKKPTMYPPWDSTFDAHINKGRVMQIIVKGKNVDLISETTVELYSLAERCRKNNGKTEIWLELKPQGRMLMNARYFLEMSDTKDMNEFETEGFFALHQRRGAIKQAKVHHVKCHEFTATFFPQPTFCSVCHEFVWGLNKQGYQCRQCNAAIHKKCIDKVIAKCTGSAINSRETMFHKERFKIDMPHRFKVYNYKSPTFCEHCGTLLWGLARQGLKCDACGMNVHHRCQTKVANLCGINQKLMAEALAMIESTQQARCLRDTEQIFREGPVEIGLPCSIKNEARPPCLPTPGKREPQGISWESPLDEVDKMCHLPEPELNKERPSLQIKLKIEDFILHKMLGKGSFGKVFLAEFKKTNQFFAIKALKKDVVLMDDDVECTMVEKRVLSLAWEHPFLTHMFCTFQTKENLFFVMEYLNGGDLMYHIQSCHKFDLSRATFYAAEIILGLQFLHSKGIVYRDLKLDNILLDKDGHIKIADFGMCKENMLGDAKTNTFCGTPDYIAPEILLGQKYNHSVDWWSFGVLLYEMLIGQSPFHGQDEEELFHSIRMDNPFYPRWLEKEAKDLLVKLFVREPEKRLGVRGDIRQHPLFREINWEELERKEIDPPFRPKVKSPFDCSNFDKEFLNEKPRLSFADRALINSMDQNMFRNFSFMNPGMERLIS

Structure (SMILES)	IC50 [1] [µM]	melting point [°C]
C[C@H](c1ccccc1)n1c(=O)[nH]c2ncc(-c3cccc4ccccc34)nc21 [Compound 3, (R)-6-(naphthalen-1-yl)-1-(1-phenylethyl)-1H-imidazo[4,5-b]pyrazin-2(3H)-one]	> 30	–
C[C@@H](c1ccccc1)n1c(=O)[nH]c2ncc(-c3cccc4ccccc34)nc21 [Compound 7, (S)-6-(naphthalen-1-yl)-1-(1-phenylethyl)-1H-imidazo[4,5-b]pyrazin-2(3H)-one]	> 30	–
CC(C)[C@H](CO)n1c(=O)[nH]c2ncc(-c3ccccc3)nc21 [Compound 9, (R)-1-(1-hydroxy-3-methylbutan-2-yl)-6-phenyl-1H-imidazo[4,5-b]pyrazin-2(3H)-one]	> 30	–
CC(C)[C@H](CO)n1c(=O)[nH]c2ncc(-c3cccc4ncccc34)nc21 [Compound 12, (R)-1-(1-hydroxy-3-methylbutan-2-yl)-6-(quinolin-5-yl)-1H-imidazo[4,5-b]pyrazin-2(3H)-one]	> 30	–
C[C@H](c1ccccc1)n1c(=O)[nH]c2nccnc21 [Compound 16, (R)-1-(1-phenylethyl)-1H-imidazo[4,5-b]pyrazin-2(3H)-one]	> 30	–
C[C@@H](c1ccccc1)n1c(=O)[nH]c2nccnc21 [Compound 17, (S)-1-(1-phenylethyl)-1H-imidazo[4,5-b]pyrazin-2(3H)-one]	> 30	–
COc1ccc(C(C)C)cc1-c1cnc2[nH]c(=O)n(C(C)C)c2n1 [Compound 18, 1-isopropyl-6-(5-isopropyl-2-methoxyphenyl)-1H-imidazo[4,5-b]pyrazin-2(3H)-one]	5.1 to 10	–
COc1ccc(C(C)C)cc1-c1cnc2[nH]c(=O)n(C3CCCCC3)c2n1 [Compound 19, 1-cyclohexyl-6-(5-isopropyl-2-methoxyphenyl)-1H-imidazo[4,5-b]pyrazin-2(3H)-one]	> 30	–
O=c1[nH]c2ncc(-c3cccc4ncccc34)nc2[nH]1 [Compound 20, 5-(quinolin-5-yl)-1H-imidazo[4,5-b]pyrazin-2(3H)-one]	> 30	–
COc1ccc(C(C)C)cc1-c1cnc2[nH]c(=O)n(CC(C)C)c2n1 [Compound 21, 1-isobutyl-6-(5-isopropyl-2-methoxyphenyl)-1H-imidazo[4,5-b]pyrazin-2(3H)-one]	> 30	–
COc1ccc(C(C)C)cc1-c1cnc2[nH]c(=O)n(CCO)c2n1 [Compound 22, 1-(2-hydroxyethyl)-6-(5-isopropyl-2-methoxyphenyl)-1H-imidazo[4,5-b]pyrazin-2(3H)-one]	> 30	–
COc1ccc(C(C)C)cc1-c1cnc2[nH]c(=O)n(C3CCOCC3)c2n1 [Compound 23, 6-(5-isopropyl-2-methoxyphenyl)-1-(tetrahydro-2H-pyran-4-yl)-1H-imidazo[4,5-b]pyrazin-2(3H)-one]	> 30	–
COc1ccc(C(C)C)cc1-c1cnc2[nH]c(=O)n([C@H]3CCOC3)c2n1 [Compound 29, (S)-6-(5-isopropyl-2-methoxyphenyl)-1-(tetrahydrofuran-3-yl)-1H-imidazo[4,5-b]pyrazin-2(3H)-one]	> 30	–
COc1ccc(C(C)C)cc1-c1cnc2[nH]c(=O)n(C3CCCC3)c2n1 [Compound 31, 1-cyclopentyl-6-(5-isopropyl-2-methoxyphenyl)-1H-imidazo[4,5-b]pyrazin-2(3H)-one]	> 30	–
COc1ccc(C(C)C)cc1-c1cnc2[nH]c(=O)n([C@@H]3CCOC3)c2n1 [Compound 32, (R)-6-(5-isopropyl-2-methoxyphenyl)-1-(tetrahydrofuran-3-yl)-1H-imidazo[4,5-b]pyrazin-2(3H)-one]	10.1 to 20	–
COc1ccc(C(C)C)cc1-c1cnc2[nH]c(=O)n(CC3CC3)c2n1 [Compound 33, 1-(cyclopropylmethyl)-6-(5-isopropyl-2-methoxyphenyl)-1H-imidazo[4,5-b]pyrazin-2(3H)-one]	> 30	–
COc1ccc(C(C)C)cc1-c1cnc2[nH]c(=O)n(CC3CCCC3)c2n1 [Compound 34, 1-(cyclopentylmethyl)-6-(5-isopropyl-2-methoxyphenyl)-1H-imidazo[4,5-b]pyrazin-2(3H)-one]	> 30	–
COc1ccc(C(C)C)cc1-c1cnc2[nH]c(=O)n(CC3CCCCC3)c2n1 [Compound 35, 1-(cyclohexylmethyl)-6-(5-isopropyl-2-methoxyphenyl)-1H-imidazo[4,5-b]pyrazin-2(3H)-one]	> 30	–
COc1ccc(C(C)C)cc1-c1cnc2[nH]c(=O)n(CC(C)(C)C)c2n1 [Compound 36, 6-(5-isopropyl-2-methoxyphenyl)-1-neopentyl-1H-imidazo[4,5-b]pyrazin-2(3H)-one]	> 30	–
CC(C)c1cccc(-c2cnc3[nH]c(=O)n(C(C)C)c3n2)c1 [Compound 37, 1-isopropyl-6-(3-isopropylphenyl)-1H-imidazo[4,5-b]pyrazin-2(3H)-one]	> 30	–
COc1ccccc1-c1cnc2[nH]c(=O)n(C(C)C)c2n1 [Compound 38, 1-isopropyl-6-(2-methoxyphenyl)-1H-imidazo[4,5-b]pyrazin-2(3H)-one]	> 30	–
COc1ccc(C(C)C)cc1-c1ccc2[nH]c(=O)n([C@H](CO)C(C)C)c2n1 [Compound 39, (S)-3-(1-hydroxy-3-methylbutan-2-yl)-5-(5-isopropyl-2-methoxyphenyl)-1H-imidazo[4,5-b]pyridin-2(3H)-one]	> 30	–
CC(c1ccccc1)n1c(=O)[nH]c2ncc(-c3cccc4ncccc34)nc21 (stereo not drawn) [Compound 42, 1-(1-phenylethyl)-6-(quinolin-5-yl)-1H-imidazo[4,5-b]pyrazin-2(3H)-one]	0.1 to 5	–

The next lines start with the values.

IC50 [1] [µM]	melting point [°C]	Structure (SMILES)
> 30	–	O=c1[nH]c2ncc(-c3cccc4ncccc34)nc2n1C(c1ccccc1)c1ccccc1 [Compound 43, 1-benzhydryl-6-(quinolin-5-yl)-1H-imidazo[4,5-b]pyrazin-2(3H)-one]
> 30	–	CC[C@@H](c1ccccc1)n1c(=O)[nH]c2ncc(-c3cccc4ncccc34)nc21 [Compound 44, (S)-1-(1-phenylpropyl)-6-(quinolin-5-yl)-1H-imidazo[4,5-b]pyrazin-2(3H)-one]
10.1 to 20	–	COc1ccc(C(C)C)cc1-c1cnc2[nH]c(=O)n(C3CCCOC3)c2n1 (stereo not drawn) [Compound 46, 6-(5-isopropyl-2-methoxyphenyl)-1-(tetrahydro-2H-pyran-3-yl)-1H-imidazo[4,5-b]pyrazin-2(3H)-one]
–	258 to 260	NCc1nc(-c2ccc(-c3cnc4[nH]c(=O)n(CCC5CCOCC5)c4n3)cc2)n[nH]1 [Compound 220, 6-(4-(5-(aminomethyl)-1H-1,2,4-triazol-3-yl)phenyl)-1-(2-(tetrahydro-2H-pyran-4-yl)ethyl)-1H-imidazo[4,5-b]pyrazin-2(3H)-one]
–	264 to 265	O=c1[nH]c2ncc(-c3ccc4[nH]cnc4c3)nc2n1CCC1CCOCC1 [Compound 227, 6-(1H-benzo[d]imidazol-5-yl)-1-(2-(tetrahydro-2H-pyran-4-yl)ethyl)-1H-imidazo[4,5-b]pyrazin-2(3H)-one]
–	> 260	O=c1[nH]c2ncc(-c3cncnc3)nc2n1CC1CCCCC1 [Compound 230, 1-(Cyclohexylmethyl)-6-(pyrimidin-5-yl)-1H-imidazo[4,5-b]pyrazin-2(3H)-one]
–	220 to 222	O=c1[nH]c2ncc(-c3ccc(F)nc3)nc2n1CC1CCOCC1 [Compound 231, 6-(6-Fluoropyridin-3-yl)-1-((tetrahydro-2H-pyran-4-yl)methyl)-1H-imidazo[4,5-b]pyrazin-2(3H)-one]
–	> 260	Nc1ccc(-c2cnc3[nH]c(=O)n(CC4CCOCC4)c3n2)cn1 [Compound 232, 6-(6-Aminopyridin-3-yl)-1-((tetrahydro-2H-pyran-4-yl)methyl)-1H-imidazo[4,5-b]pyrazin-2(3H)-one]
–	> 260	CNc1ccc(-c2cnc3[nH]c(=O)n(CC4CCOCC4)c3n2)cn1 [Compound 235, 6-(6-(Methylamino)pyridin-3-yl)-1-((tetrahydro-2H-pyran-4-yl)methyl)-1H-imidazo[4,5-b]pyrazin-2(3H)-one]
–	> 250	Nc1ncc(-c2cnc3[nH]c(=O)n(CC4CCCCC4)c3n2)cn1 [Compound 236, 6-(2-aminopyrimidin-5-yl)-1-(cyclohexylmethyl)-1H-imidazo[4,5-b]pyrazin-2(3H)-one]
–	258 to 260	Cc1cc(-c2nc[nH]n2)ccc1-c1cnc2[nH]c(=O)n(CCC3CCOCC3)c2n1 [Compound 239, 6-(2-methyl-4-(1H-1,2,4-triazol-3-yl)phenyl)-1-(2-(tetrahydro-2H-pyran-4-yl)ethyl)-1H-imidazo[4,5-b]pyrazin-2(3H)-one]
–	> 250	CC(C)(O)c1ccc(-c2cnc3[nH]c(=O)n(CC4CCCCC4)c3n2)cn1 [Compound 240, 1-(cyclohexylmethyl)-6-(6-(2-hydroxypropan-2-yl)pyridin-3-yl)-1H-imidazo[4,5-b]pyrazin-2(3H)-one]
–	258 to 260	C[C@H](c1ccccc1)n1c(=O)[nH]c2ncc(-c3ccc(-c4nc[nH]n4)cc3)nc21 [Compound 249, (R)-6-(4-(1H-1,2,4-triazol-3-yl)phenyl)-1-(1-phenylethyl)-1H-imidazo[4,5-b]pyrazin-2(3H)-one]
